Laboratory results: patent publication US8562945B2, “Technetium- and rhenium-bis(heteroaryl) complexes and methods of use thereof” (Molecular Insight Pharmaceuticals, Inc., priority 2008, dated 2013)

How the values were obtained:
[1] = Rat tissue distribution of 99mTc complexes of example ligands (Table 6); format: in vivo, Sprague-Dawley Rats; conditions: 99mTc complex
Protocol: Rat Tissue Distribution Studies. The distribution and pharmacokinetics of selected ^99mTc-SAAC complexes were evaluated in normal male Sprague Dawley rats (180-200 grams) administered via the tail vein as a bolus injection (approximately 10 μCi/rat) in a constant volume of 0.1 ml. The animals (n=5 per time point) were euthanized by asphyxiation with carbon dioxide at 5, 30, 60, and 120 min post injection. Tissues (blood, heart, lungs, liver, spleen, kidneys, adrenals, stomach, intestines (with contents), testes, skeletal muscle, bone and brain) were dissected, excised, weighed wet, and counted in an automated γ-counter (LKB Model 1282, Wallac Oy, Finland). Tissue time-radioactivity levels expressed as percent injected dose per gram of tissue (% ID/g) was determined.
^99mTc Complexes of various example ligands in Sprague-Dawley Rats.

[2] = Determination of Log P values of 99mTc-SAAC complexes; format: physicochemical; conditions: 99mTc complex; n-octanol / 25 mM pH=7.4 phosphate buffer
Protocol: Determination of Log P Values. The Log P values of the ^99mTc(I)-complexes were determined as follows. The ^99mTc-SAAC complexes were prepared and purified by RP-HPLC. The desired peak was collected and the sample was evaporated under a stream of nitrogen. The residue was dissolved in 25 μL of saline and placed in an equal volume of n-octanol (3 mL) and 25 mM pH=7.4 phosphate buffer (3 mL). The samples were mixed under vortex for 20 min, centrifuged at 8000 rpm for 5 min and three 100 μL aliquots were removed from both the aqueous and the organic layers for analysis on a gamma counter (Wallac 1282). Subsequently, 1 mL of the phosphate bufferTc-complex solution was removed and the process was repeated with fresh n-octanol, for a total number of six extractions to ensure full extraction of all the organic components. The partition coefficients were calculated using the equation: P=(activity concentration in n-octanol)/(activity concentration in aqueous layer). The Log P values reported were calculated from the average of the different measurements.

[3] = Normal rat tissue distribution studies of 99mTc-SAAC complexes (Table 5); format: in vivo, male Sprague Dawley rats; conditions: tail vein, average ± SEM
Protocol: Normal Rat Tissue Distribution Studies. Normal rat tissue distribution studies were performed with [^99mTc(CO)3{η^3-(DpK)}], [Tc(CO)3{η^3-(DTK)}] and [Tc(CO)3{η^3-(PAMAK)}] in groups of male Sprague Dawley rats (n=4/group, 180-200 grams each) at 5, 30, 60, and 120 minutes post injection. The compounds were injected via the tail vein in saline (10 μCi/100 μl). […] All three SAAC ligands had very high accumulation and retention in the gastrointestinal (GI) tract. […] The design of hydrophilic SAAC ligands may alter the pharmacokinetics by mitigating the lipophilicity of the complex and potentially favoring renal, over liver and GI clearance. Such a result may facilitate the development of clinically relevant molecular imaging radiopharmaceuticals with desirable pharmacokinetic properties.

Compound | Blood tissue distribution ([1]; 5 min) [% ID/g] | Blood tissue distribution ([1]; 30 min) [% ID/g] | Blood tissue distribution ([1]; 60 min) [% ID/g] | Blood tissue distribution ([1]; 120 min) [% ID/g] | GI tissue distribution ([1]; 5 min) [% ID/g] | GI tissue distribution ([1]; 30 min) [% ID/g] | GI tissue distribution ([1]; 60 min) [% ID/g] | GI tissue distribution ([1]; 120 min) [% ID/g] | Kidney tissue distribution ([1]; 5 min) [% ID/g] | Kidney tissue distribution ([1]; 30 min) [% ID/g] | Kidney tissue distribution ([1]; 60 min) [% ID/g] | Kidney tissue distribution ([1]; 120 min) [% ID/g] | Liver tissue distribution ([1]; 5 min) [% ID/g] | Liver tissue distribution ([1]; 30 min) [% ID/g] | Liver tissue distribution ([1]; 60 min) [% ID/g] | Liver tissue distribution ([1]; 120 min) [% ID/g] | Sk. Muscle tissue distribution ([1]; 5 min) [% ID/g] | Sk. Muscle tissue distribution ([1]; 30 min) [% ID/g] | Sk. Muscle tissue distribution ([1]; 60 min) [% ID/g] | Sk. Muscle tissue distribution ([1]; 120 min) [% ID/g] | also measured
CCOCCn1ccnc1CN(CCCC[C@H](N)C(=O)O)Cc1nccn1CCOCC (stereo in doubt) [Compound 4, 2-amino-6-(bis((1-(2-ethoxyethyl)-1H-imidazol-2-yl)methyl)amino)hexanoic acid] | 0.83 ± 0.09 | 0.09 ± 0.02 | 0.02 ± 0 | 0.01 ± 0 | 0.57 ± 0.13 | 2.33 ± 0.61 | 3.62 ± 0.3 | 2.96 ± 0.44 | 6.86 ± 0.86 | 12.13 ± 2.36 | 12.54 ± 1 | 12.54 ± 0.81 | 1.61 ± 0.32 | 0.35 ± 0.08 | 0.28 ± 0.07 | 0.14 ± 0.02 | 0.13 ± 0.02 | 0.02 ± 0.01 | 0.01 ± 0 | 0.01 ± 0 | 
(pyridylamine)monoacetic acid lysine [PAMA-K] |  |  |  |  |  |  |  |  |  |  |  |  |  |  |  |  |  |  |  |  | Log P [2]: −1.80
Cn1ccnc1CN(CCCC[C@H](N)C(=O)O)Cc1nccn1C [Compound 13, (S)-2-amino-6-(bis((1-methyl-1H-imidazol-2-yl)methyl)amino)hexanoic acid] | 1.18 ± 0.18 | 0.28 ± 0.03 | 0.11 ± 0.02 | 0.03 ± 0.01 | 0.15 ± 0.02 | 0.45 ± 0.11 | 0.84 ± 0.1 | 1.12 ± 0.37 | 6.65 ± 2.06 | 22.2 ± 3.9 | 25.4 ± 1.7 | 25.5 ± 3.4 | 0.8 ± 0.28 | 1.03 ± 0.21 | 0.86 ± 0.16 | 0.74 ± 0.14 | 0.22 ± 0.03 | 0.06 ± 0.02 | 0.03 ± 0.01 | 0.01 ± 0 | 
COC(Cn1ccnc1CN(CCCC[C@H](N)C(=O)O)Cc1nccn1CC(OC)OC)OC (stereo in doubt) [Compound 6, 2-amino-6-(bis((1-(2,2-dimethoxyethyl)-1H-imidazol-2-yl)methyl)amino)hexanoic acid] | 1.46 ± 0.21 | 0.47 ± 0.05 | 0.14 ± 0.04 | 0.04 ± 0.01 | 0.34 ± 0.12 | 1.05 ± 0.2 | 1.39 ± 0.24 | 1.21 ± 0.27 | 13.82 ± 2.81 | 34.1 ± 5.59 | 40.25 ± 5.17 | 33.18 ± 2.75 | 1.06 ± 0.34 | 0.45 ± 0.04 | 0.24 ± 0.04 | 0.16 ± 0.02 | 0.3 ± 0.04 | 0.1 ± 0.01 | 0.04 ± 0.01 | 0.01 ± 0 | 
N[C@@H](CCCCN(Cc1nccn1CC(=O)O)Cc1nccn1CC(=O)O)C(=O)O (stereo in doubt) [Compound 2, 2,2′-(2,2′-(5-amino-5-carboxypentylazanediyl)bis(methylene)bis(1H-imidazole-2,1-diyl))diacetic acid] | 1.33 ± 0.2 | 1.14 ± 0.23 | 0.86 ± 0.17 | 0.72 ± 0.12 | 0.15 ± 0.02 | 0.44 ± 0.08 | 0.76 ± 0.31 | 1.22 ± 0.27 | 6.85 ± 1.85 | 10.7 ± 2.3 | 16.8 ± 4.8 | 10.2 ± 2.5 | 0.52 ± 0.07 | 0.55 ± 0.07 | 0.42 ± 0.08 | 0.39 ± 0.07 | 0.29 ± 0.04 | 0.21 ± 0.06 | 0.16 ± 0.03 | 0.14 ± 0.02 | 
Cn1ccnc1CN(CCCC[C@H](N)C(=O)O)CC(=O)O [Compound 18, (S)-2-amino-6-((carboxymethyl)((1-methyl-1H-imidazol-2-yl)methyl)amino) hexanoic acid] | 1.03 ± 0.14 | 0.45 ± 0.1 | 0.22 ± 0.02 | 0.09 ± 0.01 | 0.16 ± 0.01 | 1.96 ± 0.49 | 1.64 ± 0.64 | 2.53 ± 0.7 | 10.79 ± 1.97 | 17.05 ± 3.17 | 9.52 ± 2.54 | 3.94 ± 0.43 | 0.95 ± 0.14 | 3.02 ± 0.59 | 0.98 ± 0.22 | 0.44 ± 0.14 | 0.21 ± 0.05 | 0.09 ± 0.02 | 0.05 ± 0.01 | 0.02 ± 0 | 
NC(CCCCN1CC(=O)[O][Tc-][O]C(=O)C1)C(=O)O.[C-]#[O+].[C-]#[O+].[C-]#[O+] (stereo not shown) [Compound 7-Tc] |  |  |  |  |  |  |  |  |  |  |  |  |  |  |  |  |  |  |  |  | Log P [2]: −2.20
[^99mTc(CO)3(DPK)] |  |  |  |  |  |  |  |  |  |  |  |  |  |  |  |  |  |  |  |  | Blood tissue distribution ([3]; 5 Min post injection): 7.01 ± 1.38 % ID/g; Blood tissue distribution ([3]; 30 Min. post injection): 1.12 ± 0.31 % ID/g; Blood tissue distribution ([3]; 60 Min. post injection): 0.39 ± 0.16 % ID/g; Blood tissue distribution ([3]; 120 Min post injection): 0.18 ± 0.01 % ID/g; GI tissue distribution ([3]; 5 Min post injection): 4.65 ± 1.78 % ID/g; GI tissue distribution ([3]; 30 Min. post injection): 15.01 ± 1.82 % ID/g; GI tissue distribution ([3]; 60 Min. post injection): 24.46 ± 6.20 % ID/g; GI tissue distribution ([3]; 120 Min post injection): 38.90 ± 5.94 % ID/g; Kidney tissue distribution ([3]; 5 Min post injection): 8.88 ± 3.20 % ID/g; Kidney tissue distribution ([3]; 30 Min. post injection): 9.72 ± 0.68 % ID/g; Kidney tissue distribution ([3]; 60 Min. post injection): 9.47 ± 1.23 % ID/g; Kidney tissue distribution ([3]; 120 Min post injection): 7.08 ± 1.58 % ID/g; Liver tissue distribution ([3]; 5 Min post injection): 16.28 ± 5.12 % ID/g; Liver tissue distribution ([3]; 30 Min. post injection): 26.03 ± 1.50 % ID/g; Liver tissue distribution ([3]; 60 Min. post injection): 22.71 ± 1.14 % ID/g; Liver tissue distribution ([3]; 120 Min post injection): 14.44 ± 2.75 % ID/g
